# Results as given in patent US9944969B2, “Devices, systems and methods for detecting viable infectious agents in a fluid sample” (eSense, LLC, priority 2015, dated 2018).
# Legend:
# [1] = system: E. coli; assay: pH change of sample effluent after exposure of E. coli to anti-infective (ISFET sensor system, FIG. 9); format: cell-based; conditions: for concentration of anti-infective to which the E. coli is resistant (change in pH): E. coli from fluid sample, pH of sample effluent 60 minutes after exposure
# Description: FIG. 9 illustrates experimental results of experiments conducted using the methods and system 100 described herein. The graphs in FIG. 9 show a change in the solution characteristic 136 of the measured liquid 402, such as the sample effluent 134, monitored by the system 100 at a specific point in time. In this case, the graphs in FIG. 9 show the change in the solution characteristic 136 of the measured liquid 402 sixty (60) minutes after an anti-infective 104 is introduced to the filter 110, the substrate wells 200, or a combination thereof comprising the infectious agent 102.
# In this example, E. coli can be one of the infectious agents 102 present in the fluid sample 124 applied or introduced to the system 100. […] An insignificant change in the solution characteristic 136 can be a change below a statistically significant percentage or threshold value.
# [2] = system: Staphylococcus saprophyticus; assay: pH change of sample effluent after exposure of Staphylococcus saprophyticus to anti-infective (ISFET sensor system, FIG. 10); format: cell-based; conditions: Staphylococcus saprophyticus from fluid sample; pH of sample effluent 60 minutes after exposure
# Description: In these examples, Staphylococcus saprophyticus can be one of the infectious agents 102 present in the fluid sample 124 applied or introduced to the system 100.
SMILES,concentration of anti-infective to which the E. coli is resistant (change in pH) [1],"MIC ([1]; Escherichia coli, 1 h, read-out: minimal inhibitory concentration (MIC)) [µg/mL]",concentration of anti-infective at which the Staphylococcus saprophyticus is susceptible [2],concentration of anti-infective to which the Staphylococcus saprophyticus is resistant (change in pH) [2]
O=C1CN(/N=C/c2ccc([N+](=O)[O-])o2)C(=O)N1 [nitrofurantoin],approximately 1 μg/ml,1,higher than 1 μg/ml,approximately 1 μg/ml
O=C(O)c1cn(C2CC2)c2cc(N3CCNCC3)c(F)cc2c1=O [ciprofloxacin],approximately 0.1 μg/ml,–,–,–
CC1(C)S[C@@H]2[C@H](NC(=O)[C@H](N)c3ccccc3)C(=O)N2[C@H]1C(=O)O [ampicillin],–,–,–,up to 50 μg/ml
